According to ChEMBL document CHEMBL4422630, “Identification of substituted 5-membered heterocyclic compounds as potential anti-leukemic agents” (Eur J Med Chem, 2019):
Values belong to the molecule of their own block, whether it stands above or below them. The source made the active and inactive calls. The calls are words filed in the database; no cut-off is given here.

Key:
[1] = system: SUP-B15; experiment: Induction of apoptosis in human SUP-B15 cells assessed as late apoptotic cells level after 24 hrs by Annexin V and propidium iodide staining based flow cytometry (reference value: 13.5%); format: functional
[2] = system: SUP-B15; experiment: Antiproliferative activity against human SUP-B15 assessed as reduction in cell viability after 72 hrs by CellTiter-Glo assay; format: functional, cell-based; details: SUP-B15, 72 h
[3] = Half life in mouse plasma; format: ADME, cell-free
[4] = Half life in human plasma; format: ADME, cell-free
[5] = Protein binding in human plasma; format: ADME, cell-free; details: read-out: PPB (converted)
[6] = Efflux ratio of apparent permeability across basolateral to apical side over apical to basolateral side in human Caco2 cells; format: ADME, cell-based; details: Caco-2
[7] = Half life in human microsomes; format: ADME, Microsome
[8] = system: SUP-B15; experiment: Induction of apoptosis in human SUP-B15 cells assessed as decrease in cell viability at […] after 24 hrs by ApoTox-Glo triplex assay; format: functional, cell-based
[9] = system: SUP-B15; experiment: Cell cycle arrest in human SUP-B15 cells assessed as accumulation of cells at G1/G0 phase at 5 uM after 24 hrs by propidium iodide staining-based flow cytometric analysis; format: functional
[10] = Permeability of compound at pH 7.4 by PAMPA; format: ADME; details: read-out: Peff
[11] = Permeability of compound at pH 7.4 assessed as drug retention by PAMPA; format: ADME
[12] = system: KOPN-8; experiment: Induction of apoptosis in human KOPN8 cells assessed as late apoptotic cells level after 24 hrs by Annexin V and propidium iodide staining based flow cytometry (reference value: 96.4%); format: functional
[13] = system: SUP-B15; experiment: Induction of apoptosis in human SUP-B15 cells assessed as late apoptotic cells level after 24 hrs by Annexin V and propidium iodide staining based flow cytometry (reference value: 83%); format: functional
[14] = Half life in mouse microsomes; format: ADME, Microsome
[15] = system: B-ALL; experiment: Antiproliferative activity against mouse B-ALL BCR-ABL double knockout cells assessed as reduction in cell viability after 72 hrs by CellTiter-Glo assay; format: functional, cell-based
[16] = Therapeutic index, ratio of EC50 for human BJ cells to EC50 for mouse B-ALL cells expressing wild type BCR-ABL; format: toxicity; details: human BJ cells versus mouse B-ALL cells expressing wild type BCR-ABL; read-out: Ratio EC50
[17] = system: SUP-B15; experiment: Cell cycle arrest in human SUP-B15 cells assessed as accumulation of cells at G2/M phase at 5 uM after 24 hrs by propidium iodide staining-based flow cytometric analysis; format: functional
[18] = Protein binding in mouse plasma; format: ADME, cell-free; details: read-out: PPB (converted)
[19] = system: SUP-B15; experiment: Induction of apoptosis in human SUP-B15 cells assessed as decrease in cell viability at 5 uM after 24 hrs by Annexin V/propidium iodide staining-based flow cytometric analysis; format: functional
[20] = system: SUP-B15; experiment: Induction of apoptosis in human SUP-B15 cells assessed as increase in caspase 3/7 activity after 24 hrs by caspase-Glo 3/7 reagent based luminescence assay; format: functional, cell-based
[21] = system: KOPN-8; experiment: Cell cycle arrest in human KOPN8 cells assessed as accumulation of cells at G1/G0 phase at 5 uM after 24 hrs by propidium iodide staining-based flow cytometric analysis relative to control; format: functional
[22] = system: K562; experiment: Antiproliferative activity against human K562 assessed as reduction in cell viability after 72 hrs by CellTiter-Glo assay; format: functional, cell-based; details: K562, 72 h
[23] = system: MV4-11; experiment: Antiproliferative activity against human MV411 assessed as reduction in cell viability after 72 hrs by CellTiter-Glo assay; format: functional, cell-based; details: MV4-11, 72 h
[24] = system: B-ALL; experiment: Antiproliferative activity against mouse B-ALL cells expressing wild type BCR-ABL assessed as reduction in cell viability after 72 hrs by CellTiter-Glo assay; format: functional, cell-based
[25] = system: B-ALL; experiment: Induction of apoptosis in mouse B-ALL BCR-ABL double knockout cells assessed as increase in caspase 3/7 activity after 24 hrs by caspase-Glo 3/7 reagent based luminescence assay; format: functional, cell-based
[26] = system: MDA-MB-231; experiment: Cytotoxicity against human MDA-MB-231 cells at 30 uM after 24 hrs by propidium iodide staining-based fluorescence assay; format: functional, cell-based
[27] = system: NALM-6; experiment: Antiproliferative activity against human NALM6 assessed as reduction in cell viability after 72 hrs by CellTiter-Glo assay; format: functional, cell-based; details: NALM-6, 72 h
[28] = Intrinsic clearance in human microsomes; format: ADME, Microsome
[29] = Apparent permeability of compound form apical to basolateral side in human Caco2 cells; format: ADME, cell-based; details: Caco-2
[30] = system: KOPN-8; experiment: Antiproliferative activity against human KOPN8 assessed as reduction in cell viability after 72 hrs by CellTiter-Glo assay; format: functional, cell-based; details: KOPN-8, 72 h
[31] = system: UoC-B1; experiment: Antiproliferative activity against human UOCB1 assessed as reduction in cell viability after 72 hrs by CellTiter-Glo assay; format: functional, cell-based; details: UoC-B1, 72 h
[32] = system: BJ; experiment: Antiproliferative activity against human BJ assessed as cell viability after 72 hrs by CellTiter-Glo assay; format: functional, cell-based
[33] = Apparent permeability of compound form basolateral to apical side in human Caco2 cells; format: ADME, cell-based; details: Caco-2
[34] = system: MDA-MB-231; experiment: Cytotoxicity against human MDA-MB-231 cells up to 30 uM after 24 hrs by propidium iodide staining-based fluorescence assay; format: functional, cell-based
[35] = system: KOPN-8; experiment: Cell cycle arrest in human KOPN8 cells assessed as accumulation of cells at G2/M phase at 5 uM after 24 hrs by propidium iodide staining-based flow cytometric analysis relative to control; format: functional
[36] = system: KOPN-8; experiment: Induction of apoptosis in human KOPN8 cells assessed as late apoptotic cells level after 24 hrs by Annexin V and propidium iodide staining based flow cytometry (reference value: 2%); format: functional
[37] = Intrinsic clearance in mouse microsomes; format: ADME, Microsome
[38] = system: SUP-B15; experiment: Cytotoxicity in human SUP-B15 cells assessed as decrease in cell viability after 24 hrs by bis-AAF-RF110 dye based assay; format: functional
[39] = system: KOPN-8; experiment: Induction of apoptosis in human KOPN8 cells assessed as decrease in cell viability at 5 uM after 24 hrs by Annexin V/propidium iodide staining-based flow cytometric analysis; format: functional
[40] = system: KOPN-8; experiment: Cell cycle arrest in human KOPN8 cells assessed as increase in accumulation of cells at S phase at 5 uM after 24 hrs by propidium iodide staining-based flow cytometric analysis; format: functional
[41] = system: SUM149PT; experiment: Cytotoxicity against human SUM149 cells at 100 uM after 24 hrs by propidium iodide staining-based fluorescence assay relative to control; format: functional
[42] = Half life in simulated gastric fluid; format: ADME
[43] = system: KOPN-8; experiment: Induction of apoptosis in human KOPN8 cells assessed as late apoptotic cells level at 2 uM after 24 hrs by Annexin V and propidium iodide staining based flow cytometry (reference value: 96.4%); format: functional
[44] = system: SUP-B15; experiment: Induction of apoptosis in human SUP-B15 cells assessed as late apoptotic cells level at 2 uM after 24 hrs by Annexin V and propidium iodide staining based flow cytometry (reference value: 13.5%); format: functional
[45] = system: KOPN-8; experiment: Induction of apoptosis in human KOPN8 cells assessed as late apoptotic cells level at 2 uM after 24 hrs by Annexin V and propidium iodide staining based flow cytometry (reference value: 2%); format: functional
[46] = system: SUP-B15; experiment: Induction of apoptosis in human SUP-B15 cells assessed as late apoptotic cells level at 2 uM after 24 hrs by Annexin V and propidium iodide staining based flow cytometry (reference value: 83%); format: functional

half-life [3]: > 48 h | half-life [4]: > 48 h | fraction unbound [5]: 0.042 | efflux ratio [6]: 3.5 | half-life [7]: 1.44 h | Papp [10]: 617 ×10⁻⁶ cm/s | permeability [11]: 24.8% | half-life [14]: 1.2 h | fraction unbound [18]: 0.023 | EC50 [22]: 4.6 µM | EC50 [23]: 3.8 µM | CLint scaled [28]: 14.5 mL/min/kg | Papp A→B [29]: 10.6 ×10⁻⁶ cm/s | Papp B→A [33]: 37.2 ×10⁻⁶ cm/s | CLint scaled [37]: 47.5 mL/min/kg | half-life [42]: > 48 h
SMILES: Cc1ccc(S(=O)(=O)Cc2nc(-c3ccc(C(=O)NCc4cccnc4)cc3)oc2C)cc1
Activity [1]: 7.6% | EC50 [2]: 1.1 µM | Activity [8]: Active | Activity [9]: inactive | Activity [12]: 95.8% | Activity [13]: 69.9% | EC50 [15]: 0.061 µM | selectivity ratio [16]: 34 | Activity [17]: inactive | Activity [19]: Active | Activity [20]: Active | Activity [21]: 10% | EC50 [24]: 0.072 µM | Activity [25]: inactive | Activity [26]: Active | EC50 [27]: 0.026 µM | EC50 [30]: 1.23 µM | EC50 [31]: > 55 µM | EC50 [32]: 2.49 µM | Activity [34]: inactive | Activity [35]: 12% | Activity [36]: 2.9% | Activity [38]: Active | Activity [39]: Active | Activity [40]: Active | Activity [41]: 50%

SMILES: CN[C@@H]1C[C@H]2O[C@@](C)([C@@H]1OC)n1c3ccccc3c3c4c(c5c6ccccc6n2c5c31)C(=O)NC4 [STAUROSPORINE]
Activity [43]: 53.2% | Activity [44]: 52.3% | Activity [45]: 45.2% | Activity [46]: 10%
